Results on 19 molecules are retold here after patent EP3057951B1, “METHYLENE LINKED QUINOLINYL MODULATORS OF ROR-GAMMA-T” (Janssen Pharmaceutica NV, priority 2013, dated 2015).

Several values for one entry are separate records, joined by “and”; a condition that tells them apart may be missing. Equal values may be shown once.

For orientation: IC50 means the concentration that inhibits the measured activity by half. Read a high IC50 as weaker potency in that assay. In general, Kd refers to the constant that tells how readily two partners part at equilibrium.

Assay [1] concerns the target T1, wild type human RORγt LBD (Homo sapiens, UniProt P51449).
T1 construct: expressed in transfected cells; host or cells: HEK293T
T1 sequence (P51449 258-518): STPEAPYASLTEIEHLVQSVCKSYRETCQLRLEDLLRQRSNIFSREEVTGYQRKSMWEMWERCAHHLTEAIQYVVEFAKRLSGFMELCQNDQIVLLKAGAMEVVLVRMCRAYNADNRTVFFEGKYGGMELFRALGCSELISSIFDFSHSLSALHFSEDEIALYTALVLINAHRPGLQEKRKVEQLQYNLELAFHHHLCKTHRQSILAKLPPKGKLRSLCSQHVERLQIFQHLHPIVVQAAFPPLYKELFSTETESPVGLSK
Put plainly: RORγt (LBD) Reporter Assay (GAL4-luciferase, HEK293T cells). The class given is cell-based. The note with it: for IC50: HEK293T cells, value after the comma with ∼, > or < could not be included in the average; for inhibition at 6 µM: HEK-293T, read-out: RORγt (LBD) Reporter Assay, % inhibition @ 6 µM, 6 µM compound concentration; for RORγt (LBD) Reporter Assay, % inhibition @ 6 µM: 6 µM compound concentration. A general note: Reporter assays use an easily measured gene product as a stand-in for the process of interest.

Assay [2] has as its target T2, wild type human RORγt ligand binding domain (RORyt LBD) (Homo sapiens, UniProt P51449).
T2 construct: His-tag (N); TurboTEV protease cleavage site (ENLYFQG) (N); made in house; host or cells: E. coli (pHIS1, modified pET vector)
T2 sequence (P51449 258-518): T1 sequence (P51449 258-518)
Briefly: RORγt ThermoFluor assay (thermal shift, binding affinity KD).

For `COc1nc2ccc(C(O)(c3ccc(C)nc3C)c3cnnn3C)cc2c(Cl)c1Cc1ccc(-n2cncn2)cc1` (single isomer, unassigned) [Example 22b, (3-(4-(1H-1,2,4-Triazol-1-yl)benzyl)-4-chloro-2-methoxyquinolin-6-yl)(2,6-dimethylpyridin-3-yl)(1-methyl-1H-1,2,3-triazol-5-yl)methanol], in assay [1], inhibition was half-maximal at 790 nM (IC50) and the inhibition at 6 µM was determined as 97%. Also, the Kd in assay [2] was found to be 480 nM.
For `COc1nc2ccc(C(O)(c3ccc(C)nc3C)c3cnnn3C)cc2c(Cl)c1Cc1ccc(-n2cncn2)cc1` (single isomer, unassigned) [Example 22c, (3-(4-(1H-1,2,4-Triazol-1-yl)benzyl)-4-chloro-2-methoxyquinolin-6-yl)(2,6-dimethylpyridin-3-yl)(1-methyl-1H-1,2,3-triazol-5-yl)methanol], the “RORγt (LBD) Reporter Assay, % inhibition @ 6 µM” value (shortened to “RORγt … % inhibition @ 6 µM”) in assay [1] (6 µM) was found to be 98%. Besides, the IC50 in assay [1] was determined as 11 nM. Besides, the Kd in assay [2] was found to be 2 nM.
With `CCc1nc2ccc(C(O)(c3ccc(C)nc3C)c3cnnn3C)cc2c(Cl)c1Cc1ccc(C(F)(F)F)cc1` (single isomer, unassigned) [Example 23b, (4-Chloro-2-ethyl-3-(4-(trifluoromethyl)benzyl)quinolin-6-yl)(2,6-dimethylpyridin-3-yl)(1-methyl-1H-1,2,3-triazol-5-yl)methanol], in assay [1], the IC50 came out at 200 nM and the inhibition at 6 µM stood at 94%. Further, the Kd in assay [2] is 82 nM.
`CCc1nc2ccc(C(O)(c3ccc(C)nc3C)c3cnnn3C)cc2c(Cl)c1Cc1ccc(C(F)(F)F)cc1` (single isomer, unassigned) [Example 23c, (4-Chloro-2-ethyl-3-(4-(trifluoromethyl)benzyl)quinolin-6-yl)(2,6-dimethylpyridin-3-yl)(1-methyl-1H-1,2,3-triazol-5-yl)methanol]: the “RORγt … % inhibition @ 6 µM” value in assay [1] (6 µM) was found to be 97%. In assay [1], this molecule gave an IC50 of 46 nM. For the same molecule, the Kd in assay [2] worked out at 0.03 nM.
Consider `COc1nc2ccc(C(O)(c3ccc(C)nc3C)c3cnnn3C)cc2c(Cl)c1Cc1ccc(N(C)C)cc1` (single isomer, unassigned) [Example 24b, (4-Chloro-3-(4-(dimethylamino)benzyl)-2-methoxyquinolin-6-yl)(2,6-dimethylpyridin-3-yl)(1-methyl-1H-1,2,3-triazol-5-yl)methanol], for which, in assay [1], the 50% inhibitory concentration (IC50) was about 220 nM and the inhibition at 6 µM was found to be 92%. For the same molecule, in assay [2], the equilibrium dissociation constant (Kd) was determined as 130 nM.
Consider `COc1nc2ccc(C(O)(c3ccc(C)nc3C)c3cnnn3C)cc2c(Cl)c1Cc1ccc(N(C)C)cc1` (single isomer, unassigned) [Example 24c, (4-Chloro-3-(4-(dimethylamino)benzyl)-2-methoxyquinolin-6-yl)(2,6-dimethylpyridin-3-yl)(1-methyl-1H-1,2,3-triazol-5-yl)methanol], for which the “RORγt … % inhibition @ 6 µM” value in assay [1] (6 µM) is given as 97%. Moreover, inhibition in assay [1] was half-maximal at 25 nM (IC50). In assay [2], the Kd was found to be 0.32 nM.
For `CCc1nc2ccc(C(O)(c3cnnn3C)c3cnc(C)n3C)cc2c(Cl)c1Cc1ccc(C(F)(F)F)cc1` (single isomer, unassigned) [Example 25b, (4-Chloro-2-ethyl-3-(4-(trifluoromethyl)benzyl)quinolin-6-yl)(1,2-dimethyl-1H-imidazol-5-yl)(1-methyl-1H-1,2,3-triazol-5-yl)methanol], in assay [1], the half-maximal inhibitory concentration (IC50) is 1.9 nM and < 3 nM; the inhibition at 6 µM was 100%. Moreover, the Kd in assay [2] amounted to 0.01 nM.
For `CCc1nc2ccc(C(O)(c3cnnn3C)c3cnc(C)n3C)cc2c(Cl)c1Cc1ccc(C(F)(F)F)cc1` (single isomer, unassigned) [Example 25c, (4-Chloro-2-ethyl-3-(4-(trifluoromethyl)benzyl)quinolin-6-yl)(1,2-dimethyl-1H-imidazol-5-yl)(1-methyl-1H-1,2,3-triazol-5-yl)methanol], the “RORγt … % inhibition @ 6 µM” value in assay [1] (6 µM) turned out to be 99%. The same molecule registered an IC50 in assay [1] of 2.1 nM. The Kd in assay [2] worked out at 0.02 nM.
As to `COc1nc2ccc(C(O)(c3ccc(C#N)cc3)c3cncn3C)cc2c(Cl)c1Cc1ccc(C(F)(F)F)nc1` (single isomer, unassigned) [Example 38b, 4-((4-Chloro-2-methoxy-3-((6-(trifluoromethyl)pyridin-3-yl)methyl)quinolin-6-yl)(hydroxy)(1-methyl-1H-imidazol-5-yl)methyl)benzonitrile], in assay [1], 250 nM corresponded to half-maximal inhibition (IC50) and the inhibition at 6 µM worked out at 94%. Further, the Kd in assay [2] amounted to 150 nM.
As for `COc1nc2ccc(C(O)(c3ccc(C#N)cc3)c3cncn3C)cc2c(Cl)c1Cc1ccc(C(F)(F)F)nc1` (single isomer, unassigned) [Example 38c, 4-((4-Chloro-2-methoxy-3-((6-(trifluoromethyl)pyridin-3-yl)methyl)quinolin-6-yl)(hydroxy)(1-methyl-1H-imidazol-5-yl)methyl)benzonitrile], in assay [1] (6 µM), the “RORγt … % inhibition @ 6 µM” value is 98%. Besides, half-maximal inhibition in assay [1] (IC50) required 14 nM. Also, in assay [2], the Kd came out at 5.2 nM.
On to `COc1nc2ccc(C(O)(c3ccc(C)nc3C)c3cnnn3C)cc2c(C#N)c1Cc1ccc(C(F)(F)F)nc1` (single isomer, unassigned) [Example 41b, 6-((2,6-Dimethylpyridin-3-yl)(hydroxy)(1-methyl-1H-1,2,3-triazol-5-yl)methyl)-2-methoxy-3-((6-(trifluoromethyl)pyridin-3-yl)methyl)quinoline-4-carbonitrile], for which, in assay [1], the IC50 was 1600 nM and the inhibition at 6 µM was found to be 92%. Besides, the Kd in assay [2] came to 1200 nM.
`COc1nc2ccc(C(O)(c3ccc(C)nc3C)c3cnnn3C)cc2c(C#N)c1Cc1ccc(C(F)(F)F)nc1` (single isomer, unassigned) [Example 41c, 6-((2,6-Dimethylpyridin-3-yl)(hydroxy)(1-methyl-1H-1,2,3-triazol-5-yl)methyl)-2-methoxy-3-((6-(trifluoromethyl)pyridin-3-yl)methyl)quinoline-4-carbonitrile]: the “RORγt … % inhibition @ 6 µM” value in assay [1] (6 µM) was determined as 99%. The molecule also showed an IC50 in assay [1] of 5.9 nM. Further, the Kd in assay [2] is 6.4 nM.
As to `COc1nc2ccc(C(O)(c3cnnn3C)c3cnc(C)n3C)cc2c(Cl)c1Cc1ccc(C(F)(F)F)nc1` (single isomer, unassigned) [Example 43b, (4-Chloro-2-methoxy-3-((6-(trifluoromethyl)pyridin-3-yl)methyl)quinolin-6-yl)(1,2-dimethyl-1H-imidazol-5-yl)(1-methyl-1H-1,2,3-triazol-5-yl)methanol], in assay [1], the IC50 came to 10 nM and the inhibition at 6 µM turned out to be 98%. For the same molecule, the Kd in assay [2] was found to be 0.49 nM.
As for `COc1nc2ccc(C(O)(c3cnnn3C)c3cnc(C)n3C)cc2c(Cl)c1Cc1ccc(C(F)(F)F)nc1` (single isomer, unassigned) [Example 43c, (4-Chloro-2-methoxy-3-((6-(trifluoromethyl)pyridin-3-yl)methyl)quinolin-6-yl)(1,2-dimethyl-1H-imidazol-5-yl)(1-methyl-1H-1,2,3-triazol-5-yl)methanol], the “RORγt … % inhibition @ 6 µM” value in assay [1] (6 µM) turned out to be 99%. This molecule also registered a concentration for half-maximal inhibition (IC50) in assay [1] of 5.3 nM. Moreover, the Kd in assay [2] came to 0.96 nM.
On to `COc1nc2ccc(C(O)(c3cnnn3C)c3cnc(C)n3C)cc2c(C#N)c1Cc1ccc(C(F)(F)F)nc1` (single isomer, unassigned) [Example 44b, 6-((1,2-Dimethyl-1H-imidazol-5-yl)(hydroxy)(1-methyl-1H-1,2,3-triazol-5-yl)methyl)-2-methoxy-3-((6-(trifluoromethyl)pyridin-3-yl)methyl)quinoline-4-carbonitrile], for which, in assay [1], the IC50 turned out to be 24 nM and the inhibition at 6 µM worked out at 99%. Also, in assay [2], the Kd stood at 5.2 nM.
For the molecule `COc1nc2ccc(C(O)(c3cnnn3C)c3cnc(C)n3C)cc2c(C#N)c1Cc1ccc(C(F)(F)F)nc1` (single isomer, unassigned) [Example 44c, 6-((1,2-Dimethyl-1H-imidazol-5-yl)(hydroxy)(1-methyl-1H-1,2,3-triazol-5-yl)methyl)-2-methoxy-3-((6-(trifluoromethyl)pyridin-3-yl)methyl)quinoline-4-carbonitrile], in assay [1], the “RORγt … % inhibition @ 6 µM” value is listed as 99% and the IC50 turned out to be 19 nM. In addition, the Kd in assay [2] was 9 nM.
`COc1nc2ccc(C(O)(c3ccc(F)cc3)C3CCN(C(C)=O)CC3)cc2c(Cl)c1Cc1ccc(F)cc1` (single isomer, unassigned) [Example 51b, 1-(4-((4-Chloro-3-(4-fluorobenzyl)-2-methoxyquinolin-6-yl)(4-fluorophenyl)(hydroxy)methyl)piperidin-1-yl)ethanone]: in assay [1] (6 µM), the “RORγt … % inhibition @ 6 µM” value is recorded as 46%. The molecule also displayed an IC50 in assay [1] of 170 nM. Also, the equilibrium dissociation constant (Kd) in assay [2] was found to be 3.9 nM.
For `COc1nc2ccc(C(O)(c3ccc(F)cc3)C3CCN(C(C)=O)CC3)cc2c(Cl)c1Cc1ccc(F)cc1` (single isomer, unassigned) [Example 51c, 1-(4-((4-Chloro-3-(4-fluorobenzyl)-2-methoxyquinolin-6-yl)(4-fluorophenyl)(hydroxy)methyl)piperidin-1-yl)ethanone] the same measures were 4%, over 6000 nM and 200 nM.
For `Cn1cncc1C(O)(c1ccc(C(F)(F)F)nc1)c1ccc2nc(C#N)c(Cc3ccc(F)cc3)c(C#N)c2c1` (single isomer, unassigned) [Example 53b, 3-(4-Fluorobenzyl)-6-(hydroxy(1-methyl-1H-imidazol-5-yl)(6-(trifluoromethyl)pyridin-3-yl)methyl)quinoline-2,4-dicarbonitrile], the “RORγt … % inhibition @ 6 µM” value in assay [1] (6 µM) came out at 32%. Also, the concentration for half-maximal inhibition (IC50) in assay [1] is over 6000 nM. Also, the Kd in assay [2] came to 1.2 nM.
